Laboratory results reported in patent US20120100227A1, “KINASE PROTEIN BINDING INHIBITORS” (University of Florida Research Foundation, priority 2009, published 2012).

Experiments:
[1] = test system: different cancer cells, including breast, melanoma, colon and pancreatic cancers; assay: MTT cell viability assay in different cancer cells; format: cell-based, human; conditions: MTT assay with 24 M inhibitors, M13 the best of all tested
Experimental: (§1) Cell Viability Assay. The cells were treated with compounds at different concentrations for 24 hours. The 3-(4,5-dimethylthiazol-2-yl)-5-(3-carboxymethoxyphenyl)-2-(4-sulfophenyl)-2H-tetrazolium compound from Promega Viability kit (Madison, Ill.) was added, and the cells were incubated at 37 C for 1-2 hours. The optical density on 96-plate was analyzed with a microplate reader at 490 nm to determine cell viability.
The name of this compound is Monotritylthymidine and it is available and was ordered from Sigma.

[2] = test system: BT474 breast cancer cells; assay: Cell viability (MTT) assay, BT474; format: cell-based, human; conditions: different concentrations, 24 hours
Experimental: (§2) Cell lines and culture. BT474 breast carcinoma cells were maintained in RPMI1640 medium supplemented with 10% fetal bovine serum (FBS), 5 μg/ml insulin, and 1 μg/ml penicillin/streptomycin. The MCF-7 cell line was obtained from ATCC and maintained according to the manufacturer's protocol. HCT116p53+/+ and p53−/− colon cancer cells were maintained in McCoy's5A medium with 10% FBS.
as §1

[3] = test system: BT474 breast cancer cells; assay: Detachment assay, BT474; format: cell-based, human; conditions: BT474, 24 hours
Experimental: (§3) Detachment Assay. Cells were plated with and without inhibitors for 24 hours, and detached and attached cells were counted in a hemocytometer. We calculated the percent of detachment by dividing the number of detached cells by the total number of cells. The percent of detached cells was calculated in three independent experiments.

[4] = test system: BT474 breast cancer cells; assay: Apoptosis assay (Hoechst 33342), BT474; format: cell-based, human; conditions: BT474, Hoechst 33342 staining of detached cells
Experimental: (§4) Apoptosis Assay. Detached cells were collected and fixed in 3.7% formaldehyde in 1×PBS solution for the apoptosis assay. Detection of apoptosis was done with Hoechst 33342 staining. The percent of apoptotic cells was calculated as a ratio of apoptotic detached cells divided by the total number of cells in three independent experiments in several fields with the fluorescent microscope. For each experiment 300 cells per treatment were counted.

[5] = test system: MCF-7 breast cancer cells; assay: Viability, detachment and apoptosis, MCF-7; format: cell-based, human; conditions: MCF-7, compared with BT474
Experimental: as §2, §1, §3
Apoptosis Assay. […] The percent of apoptotic cells was calculated as a ratio of apoptotic detached cells divided by the total number of cells in three independent experiments in several fields with the fluorescent microscope. […]

[6] = test system: BT474 cells; assay: Western blotting of BT474 cells (FAK, Y397-FAK, Mdm-2, p53, caspase-8); format: cell-based, human; conditions: BT474, different doses of M13, Western blot
Experimental: Western Blotting. Cells or homogenized tumor samples were washed twice with cold 1×PBS and lysed on ice for 30 minutes in a buffer containing: 50 mM Tris-HCl (pH 7.5), 150 mM NaCl, 1% Triton-X, 0.5% NaDOC, 0.1% SDS, 5 mM EDTA, 50 mM NaF, 1 mM NaVO3, 10% glycerol and protease inhibitors: 10 μg/ml leupeptin, 10 μg/ml PMSF and 1 μg/m1 aprotinin. The lysates were cleared by centrifugation at 10,000 rpm for 30 minutes at 4° C. Protein concentrations were determined using a Bio-Rad Kit. The boiled samples were loaded on Ready SDS-10% PAGE gels (Bio Rad, Inc) and used for Western blot analysis with the protein-specific antibody. Immunoblots were developed with chemiluminescence Renaissance reagent (NEN Life Science Products, Inc). For quantification, densitometry of protein bands was performed with NIH Scion Image software.
M13 caused dose-dependent increase of Mdm-2, decrease of FAK and activation of caspase-8 in BT474 cells. We treated BT474 cells with different doses of M13 and performed Western blotting with anti-FAK, Y397-FAK, Mdm-2, p53 and caspase-8 antibodies.

[7] = target: T1, complex of FAK and Mdm-2 in BT474 cells (Homo sapiens, UniProt Q05397); assay: Immunoprecipitation of FAK, complex with Mdm-2; format: cell-based; parameters: dose or concentration left out as unconfirmed
T1 construct: We immunoprecipitated FAK and found complex of FAK with Mdm-2; endogenous in cells; host or cells: BT474 breast cancer cells
T1 sequence (Q05397 whole entry, one chain of several): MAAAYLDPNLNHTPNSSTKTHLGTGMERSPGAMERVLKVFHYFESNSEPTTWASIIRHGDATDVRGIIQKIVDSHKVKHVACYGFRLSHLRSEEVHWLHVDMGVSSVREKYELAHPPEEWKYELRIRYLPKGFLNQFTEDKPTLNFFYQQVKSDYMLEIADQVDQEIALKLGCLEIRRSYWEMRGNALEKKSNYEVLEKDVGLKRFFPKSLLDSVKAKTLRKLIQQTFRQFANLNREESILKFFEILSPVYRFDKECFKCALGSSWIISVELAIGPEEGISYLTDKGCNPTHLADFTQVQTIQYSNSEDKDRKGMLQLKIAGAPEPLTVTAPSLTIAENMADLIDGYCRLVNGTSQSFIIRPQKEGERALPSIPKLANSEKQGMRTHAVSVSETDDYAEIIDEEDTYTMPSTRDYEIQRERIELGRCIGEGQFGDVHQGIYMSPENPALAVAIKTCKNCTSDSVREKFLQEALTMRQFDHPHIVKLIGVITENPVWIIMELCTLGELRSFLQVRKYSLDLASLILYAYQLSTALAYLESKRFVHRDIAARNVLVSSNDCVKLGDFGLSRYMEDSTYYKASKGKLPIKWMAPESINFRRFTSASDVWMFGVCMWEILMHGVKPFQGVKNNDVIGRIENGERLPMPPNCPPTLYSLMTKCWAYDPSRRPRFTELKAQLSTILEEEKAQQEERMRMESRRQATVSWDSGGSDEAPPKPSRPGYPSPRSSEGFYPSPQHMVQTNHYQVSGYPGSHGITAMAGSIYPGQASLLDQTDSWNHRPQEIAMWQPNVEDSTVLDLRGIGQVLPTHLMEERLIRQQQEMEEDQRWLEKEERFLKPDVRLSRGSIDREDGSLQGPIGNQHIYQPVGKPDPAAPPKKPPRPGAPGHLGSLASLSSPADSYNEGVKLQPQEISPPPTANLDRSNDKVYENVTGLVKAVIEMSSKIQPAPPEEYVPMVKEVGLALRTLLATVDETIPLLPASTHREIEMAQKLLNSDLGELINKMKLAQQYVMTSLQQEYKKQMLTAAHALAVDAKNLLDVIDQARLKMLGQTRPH
Experimental: Immunoprecipitation. Immunoprecipitation was performed according to the standard protocol. In brief, the pre-cleared lysates with equal amount of protein were incubated with 1 μg of primary antibody and 30 μl A/G agarose beads overnight at 4° C. The precipitates were washed with lysis buffer three times and re-suspended in 2×Laemmli buffer. The boiled samples were used for Western blotting, as described above.
M13 disrupts complex of FAK and Mdm-2 in BT474 cells. We immunoprecipitated FAK and found complex of FAK with Mdm-2, confirming and reproducing data of Lim et al, Molecular Cell, 2008. At […] dose of M13, there was decreased level of FAK and complex with Mdm-2.

[8] = test system: BT474 cells; assay: Tumor growth in nude mice, BT474; format: in vivo; conditions: BT474 subcutaneous tumors, 30 mg/kg IP daily 5 days/week for 3 weeks
Experimental: (§5) Tumor Growth in Nude Mice in vivo. Female nude mice, 6 weeks old, were purchased from Harlan Laboratory. The mice were maintained in the animal facility and all experiments were performed in compliance with NIH animal-use guidelines and IACUC protocol approved by the UF Animal Care Committee. BT474 cells were injected, 2×10^6 cells/injection subcutaneously. HCT116p53−/− and HCT116p53+/+ cells were injected subcutaneously into the left and right side of the same mice to decrease variations. In preliminary experiment different doses of the compound were introduced into the mice, and 30-50 mg/kg was chosen as optimal, non-toxic doses. The day after injection, the M13 compound was introduced by IP injection at 30 mg/kg dose daily 5 days/week for 3 weeks. Tumor diameters were measured with calipers and tumor volume in mm^3 was calculated using this formula=(width)^2×Length/2. At the end of experiment, tumor weight and volume was determined.
M13 decreased breast tumorigenesis in vivo Breast cancer BT474 cells were implanted into the mice to generate tumors.

[9] = test system: colon cancer HCT116 p53+/+ cells; assay: Cell viability assay, HCT116 p53+/+; format: cell-based, human; conditions: dose-dependent
Experimental: as §2, §1
(§6) To study M13 effect in colon cancer cells and its dependence on p53 pathway, we did similar experiments to BT474 cells with colon cancer HCT116 p53−/− and p53+/+ cells. […] Thus, the in vitro effect of M13 on viability, detachment and apoptosis was p53-independent.

[10] = test system: colon cancer HCT116 p53−/− cells; assay: Cell viability assay, HCT116 p53−/−; format: cell-based, human; conditions: dose-dependent
Experimental: as §2, §1, §6

[11] = test system: colon cancer HCT116 p53+/+ cells; assay: Detachment assay, HCT116 p53+/+; format: cell-based, human; conditions: dose-dependent
Experimental: as §3, §6

[12] = test system: colon cancer HCT116 p53−/− cells; assay: Detachment assay, HCT116 p53−/−; format: cell-based, human; conditions: dose-dependent
Experimental: as §3, §6

[13] = test system: colon cancer HCT116 p53+/+ cells; assay: Apoptosis assay, HCT116 p53+/+; format: cell-based, human; conditions: dose-dependent
Experimental: as §4, §6

[14] = test system: colon cancer HCT116 p53−/− cells; assay: Apoptosis assay, HCT116 p53−/−; format: cell-based, human; conditions: dose-dependent
Experimental: as §4, §6

[15] = test system: HCT116p53+/+ cells; assay: Tumor growth in nude mice, HCT116 p53+/+; format: in vivo; conditions: HCT116 p53+/+ subcutaneous tumors, 30 mg/kg IP; no significant difference to p53−/−
Experimental: as §5
(§7) M13 decreased similarly colon tumorigenesis in both HCT116 p53+/+ and p53−/− in vivo. […] Thus, in vivo effect of M13 on tumorigenesis is p53-independent.

[16] = test system: HCT116p53−/− cells; assay: Tumor growth in nude mice, HCT116 p53−/−; format: in vivo; conditions: HCT116 p53−/− subcutaneous tumors, 30 mg/kg IP; no significant difference to p53+/+
Experimental: as §5, §7

[17] = parameters: species or system nude mice; conditions: female, nude, mouse, in vivo
Experimental: as §5

Cc1cn(C2CC(O)C(COC(c3ccccc3)(c3ccccc3)c3ccccc3)O2)c(=O)[nH]c1=O (stereo not shown) [M13, 1-[4-hydroxy-5-[tri(phenyl)methoxymethyl]oxolan-2-yl]-5-methylpyrimidine-2,4-dione]
viability of cancer cells [1]: significantly decreased viability of most cancer cells | viability [2]: decreased viability of BT474 breast cancer cells in a dose-dependent manner | detachment [3]: dose-dependent increase detachment | apoptosis [4]: dose-dependent increase detachment and apoptosis | effect on viability, detachment and apoptosis [5]: the same as with BT474 cells | FAK levels [6]: decreased FAK levels | Mdm-2 levels [6]: increased Mdm-2 levels | activation of caspase-8 [6]: caused activation of caspase-8 | association of FAK and Mdm-2 (complex) [7]: decreased association of FAK and Mdm-2 | breast tumorigenesis in vivo [8]: effectively decreased breast tumorigenesis | viability [9]: equally decreased viability | viability [10]: equally decreased viability | detachment [11]: increased detachment | detachment [12]: increased detachment | apoptosis [13]: increased detachment and apoptosis | apoptosis [14]: increased detachment and apoptosis | tumor size [15]: decrease of tumor size | tumor size [16]: decrease of tumor size | optimal, non-toxic doses [17]: 30 to 50 mg/kg
